PubChem BioAssay (NCI)
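96-well plates; 48 h exposure; 5 concentrations. Endpoints by linear interpolation between flanking doses. Not reached: highest tested concentration assigned. GI50: concentration for 50% inhibition of growth. TGI: total growth inhibition.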

Tests used:
Assay in all cases: DTP human tumour cell line panel, 48 h; in the data active means GI50 below about 0.43 µM; inactive means the rest
LOX IMVI melanoma = test system: LOX IMVI melanoma
HOP-62 NSCLC = test system: HOP-62 NSCLC
UACC-257 melanoma = test system: UACC-257 melanoma
DU-145 prostate = test system: DU-145 prostate
K-562 leukemia = test system: K-562 leukemia
T-47D breast = test system: T-47D breast
TK-10 renal = test system: TK-10 renal
SK-MEL-5 melanoma = test system: SK-MEL-5 melanoma
SR leukemia = test system: SR leukemia
HL-60(TB) leukemia = test system: HL-60(TB) leukemia
PC-3 prostate = test system: PC-3 prostate
A549 NSCLC = test system: A549 NSCLC
OVCAR-8 ovarian = test system: OVCAR-8 ovarian
NCI-H460 lung = test system: NCI-H460 lung
RPMI-8226 leukemia = test system: RPMI-8226 leukemia
UACC-62 melanoma = test system: UACC-62 melanoma
786-0 renal = test system: 786-0 renal
RXF 393 renal = test system: RXF 393 renal
IGROV1 ovarian = test system: IGROV1 ovarian
SNB-75 CNS = test system: SNB-75 CNS
HCT-116 colon = test system: HCT-116 colon
SK-MEL-2 melanoma = test system: SK-MEL-2 melanoma
NCI/ADR-RES ovarian = test system: NCI/ADR-RES ovarian
ACHN renal = test system: ACHN renal
M14 melanoma = test system: M14 melanoma
NCI-H226 lung = test system: NCI-H226 lung
SF-539 CNS = test system: SF-539 CNS
MDA-MB-231 breast = test system: MDA-MB-231 breast
OVCAR-5 ovarian = test system: OVCAR-5 ovarian
NCI-H23 lung = test system: NCI-H23 lung
HCC-2998 colon = test system: HCC-2998 colon
A498 renal = test system: A498 renal
OVCAR-3 ovarian = test system: OVCAR-3 ovarian
OVCAR-4 ovarian = test system: OVCAR-4 ovarian
SN12C renal = test system: SN12C renal
HS 578T breast = test system: HS 578T breast
HCT-15 colon = test system: HCT-15 colon
MALME-3M melanoma = test system: MALME-3M melanoma
SK-OV-3 ovarian = test system: SK-OV-3 ovarian
BT-549 breast = test system: BT-549 breast
CAKI-1 renal = test system: CAKI-1 renal
COLO 205 colon = test system: COLO 205 colon
SK-MEL-28 melanoma = test system: SK-MEL-28 melanoma
MOLT-4 leukemia = test system: MOLT-4 leukemia
U251 CNS = test system: U251 CNS
SF-295 CNS = test system: SF-295 CNS
HT29 colon = test system: HT29 colon
UO-31 renal = test system: UO-31 renal
NCI-H522 lung = test system: NCI-H522 lung
MDA-MB-435 = test system: MDA-MB-435
SF-268 CNS = test system: SF-268 CNS
SNB-19 CNS = test system: SNB-19 CNS
CCRF-CEM leukemia = test system: CCRF-CEM leukemia
HOP-92 NSCLC = test system: HOP-92 NSCLC
SW-620 colon = test system: SW-620 colon
MCF7 breast = test system: MCF7 breast
KM12 colon = test system: KM12 colon

COc1ccc(C2=C(c3cn(C)c4ccccc34)C(=O)NC2=O)cc1
> 25 µM: TGI (LOX IMVI melanoma) | TGI (HOP-62 NSCLC) | TGI (UACC-257 melanoma) | TGI (DU-145 prostate) | TGI (K-562 leukemia) | TGI (T-47D breast) | TGI (TK-10 renal) | TGI (SK-MEL-5 melanoma) | TGI (SR leukemia) | TGI (HL-60(TB) leukemia) | TGI (PC-3 prostate) | TGI (A549 NSCLC) | TGI (OVCAR-8 ovarian) | TGI (NCI-H460 lung) | TGI (RPMI-8226 leukemia) | TGI (UACC-62 melanoma) | TGI (786-0 renal) | TGI (RXF 393 renal) | TGI (IGROV1 ovarian) | TGI (SNB-75 CNS) | TGI (HCT-116 colon) | TGI (SK-MEL-2 melanoma) | TGI (NCI/ADR-RES ovarian) | TGI (ACHN renal) | TGI (M14 melanoma) | TGI (NCI-H226 lung) | TGI (SF-539 CNS) | TGI (MDA-MB-231 breast) | TGI (OVCAR-5 ovarian) | TGI (NCI-H23 lung) | TGI (HCC-2998 colon) | TGI (A498 renal) | TGI (OVCAR-3 ovarian) | TGI (OVCAR-4 ovarian) | TGI (SN12C renal) | TGI (HS 578T breast) | TGI (HCT-15 colon) | TGI (MALME-3M melanoma) | TGI (SK-OV-3 ovarian) | TGI (BT-549 breast) | TGI (CAKI-1 renal) | TGI (COLO 205 colon) | TGI (SK-MEL-28 melanoma) | TGI (MOLT-4 leukemia) | TGI (U251 CNS) | TGI (SF-295 CNS) | TGI (HT29 colon) | TGI (UO-31 renal) | TGI (NCI-H522 lung) | TGI (SF-268 CNS) | TGI (SNB-19 CNS) | TGI (CCRF-CEM leukemia) | TGI (HOP-92 NSCLC) | TGI (SW-620 colon) | TGI (MCF7 breast) | TGI (KM12 colon)
inactive: GI50 (LOX IMVI melanoma) 24.9 µM | GI50 (HOP-62 NSCLC) > 23.1 µM | GI50 (UACC-257 melanoma) > 25 µM | GI50 (DU-145 prostate) > 25 µM | GI50 (K-562 leukemia) 3.89 µM | GI50 (T-47D breast) > 24.1 µM | GI50 (TK-10 renal) > 21 µM | GI50 (SK-MEL-5 melanoma) > 18.4 µM | GI50 (SR leukemia) 6.14 µM | GI50 (HL-60(TB) leukemia) 14.5 µM | GI50 (PC-3 prostate) > 21.9 µM | GI50 (A549 NSCLC) 14.1 µM | GI50 (OVCAR-8 ovarian) > 25 µM | GI50 (NCI-H460 lung) 11.1 µM | GI50 (RPMI-8226 leukemia) > 20.3 µM | GI50 (UACC-62 melanoma) 13 µM | GI50 (786-0 renal) > 25 µM | GI50 (RXF 393 renal) 10.6 µM | GI50 (IGROV1 ovarian) > 25 µM | GI50 (SNB-75 CNS) 1.97 µM | GI50 (HCT-116 colon) 12.7 µM | GI50 (SK-MEL-2 melanoma) 14.2 µM | GI50 (NCI/ADR-RES ovarian) > 17.3 µM | GI50 (ACHN renal) > 25 µM | GI50 (M14 melanoma) 19.4 µM | GI50 (NCI-H226 lung) > 22.3 µM | GI50 (SF-539 CNS) 9.76 µM | GI50 (MDA-MB-231 breast) > 25 µM | GI50 (OVCAR-5 ovarian) > 25 µM | GI50 (NCI-H23 lung) > 25 µM | GI50 (HCC-2998 colon) > 23.1 µM | GI50 (A498 renal) 6.74 µM | GI50 (OVCAR-3 ovarian) 17 µM | GI50 (OVCAR-4 ovarian) > 14.6 µM | GI50 (SN12C renal) 24.5 µM | GI50 (HS 578T breast) 9.65 µM | GI50 (HCT-15 colon) 6.05 µM | GI50 (MALME-3M melanoma) > 25 µM | GI50 (SK-OV-3 ovarian) 24.3 µM | GI50 (BT-549 breast) > 25 µM | GI50 (CAKI-1 renal) > 22.3 µM | GI50 (COLO 205 colon) 10.7 µM | GI50 (SK-MEL-28 melanoma) > 23 µM | GI50 (MOLT-4 leukemia) 15.5 µM | GI50 (U251 CNS) > 23.6 µM | GI50 (SF-295 CNS) > 17 µM | GI50 (HT29 colon) 9.43 µM | GI50 (UO-31 renal) > 23.7 µM | GI50 (NCI-H522 lung) > 12.3 µM | GI50 (MDA-MB-435) 1.56 µM | GI50 (SF-268 CNS) > 20.9 µM | GI50 (SNB-19 CNS) > 25 µM | GI50 (CCRF-CEM leukemia) 16.3 µM | GI50 (HOP-92 NSCLC) > 14.5 µM | GI50 (SW-620 colon) 8.95 µM | GI50 (MCF7 breast) 8.03 µM | GI50 (KM12 colon) 8 µM
> 14.7 µM: TGI (MDA-MB-435)
